Experimental data from US6503881B2 (priority 1996, dated 2003).
Read-outs that look alike come from different tables or passages of the source.

Tests used:
[1] = system: inherently resistant microorganisms
[2] = system: microorganisms with acquired resistance
[3] = E. coli ECO3, pair Mupirocin / MBI 11D18CN
[4] = S. aureus 19 MRSA, pair Piperacillin / MBI 11D18CN

Question: Which results are given for W R I W K P K W R L P K W [MBI 11D18CN]?
Answer: FIC [1]: 0.56; MIC Alone [1]: 32 µg/mL; MIC in combination [1]: 16 µg/mL; FIC [1, 3]: 0.26; MIC Alone [1, 3]: 4 µg/mL; MIC in combination [1, 3]: 1 µg/mL; FIC [1, 4]: 0.52; MIC Alone [1, 4]: 4 µg/mL; MIC in combination [1, 4]: 2 µg/mL; Peptide MIC + Tobramycin ([2]; A. baumannii ABI001): 4 µg/mL; Tobramycin MIC + Peptide ([2]; A. baumannii ABI001): 4 µg/mL; Peptide MIC Alone ([2]; A. baumannii ABI001 (7. Tobramycin)): 64 µg/mL; Peptide MIC + Tobramycin ([2]; A. baumannii ABI002): 0.5 µg/mL; Tobramycin MIC + Peptide ([2]; A. baumannii ABI002): 4 µg/mL; Peptide MIC Alone ([2]; A. baumannii ABI002 (7. Tobramycin)): 16 µg/mL; Peptide MIC + Piperacillin ([2]; A. calcoaceticus 3): 8 µg/mL; Piperacillin MIC + Peptide ([2]; A. calcoaceticus 3): 8 µg/mL; Peptide MIC Alone ([2]; A. calcoaceticus 3 (6. Piperacillin)): 32 µg/mL; Peptide MIC + Piperacillin ([2]; E. cloacae 9): 16 µg/mL; Piperacillin MIC + Peptide ([2]; E. cloacae 9): 16 µg/mL; Peptide MIC Alone ([2]; E. cloacae 9 (6. Piperacillin)): 64 µg/mL; Peptide MIC + Piperacillin ([2]; E. cloacae 10): 16 µg/mL; Piperacillin MIC + Peptide ([2]; E. cloacae 10): 16 µg/mL; Peptide MIC Alone ([2]; E. cloacae 10 (6. Piperacillin)): 32 µg/mL; Peptide MIC + Vancomycin ([2]; E. faecalis EFS003): 32 µg/mL; Vancomycin MIC + Peptide ([2]; E. faecalis EFS003): 2 µg/mL; Peptide MIC Alone ([2]; E. faecalis EFS003 (8. Vancomycin)): 64 µg/mL; Peptide MIC + Vancomycin ([2]; E. faecalis EFS007): 8 µg/mL; Vancomycin MIC + Peptide ([2]; E. faecalis EFS007): 1 µg/mL; Peptide MIC Alone ([2]; E. faecalis EFS007 (8. Vancomycin)): 16 µg/mL; Peptide MIC + Vancomycin ([2]; E. faecalis EFS009): 4 µg/mL; Vancomycin MIC + Peptide ([2]; E. faecalis EFS009): 2 µg/mL; Peptide MIC Alone ([2]; E. faecalis EFS009 (8. Vancomycin)): 8 µg/mL; Peptide MIC + Vancomycin ([2]; E. faecium EFM004): 4 µg/mL; Vancomycin MIC + Peptide ([2]; E. faecium EFM004): 0.5 µg/mL; Peptide MIC Alone ([2]; E. faecium EFM004 (8. Vancomycin)): 8 µg/mL; Peptide MIC + Vancomycin ([2]; E. faecium EFM007): 4 µg/mL; Vancomycin MIC + Peptide ([2]; E. faecium EFM007): 0.5 µg/mL; Peptide MIC Alone ([2]; E. faecium EFM007 (8. Vancomycin)): 8 µg/mL; Peptide MIC + Vancomycin ([2]; E. faecium EFM009): 4 µg/mL; Vancomycin MIC + Peptide ([2]; E. faecium EFM009): 1 µg/mL; Peptide MIC Alone ([2]; E. faecium EFM009 (8. Vancomycin)): 8 µg/mL; Peptide MIC + Vancomycin ([2]; E. faecium EFM010): 4 µg/mL; Vancomycin MIC + Peptide ([2]; E. faecium EFM010): 1 µg/mL; Peptide MIC Alone ([2]; E. faecium EFM010 (8. Vancomycin)): 8 µg/mL; Peptide MIC + Piperacillin ([2]; P. aeruginosa 23): 4 µg/mL; Piperacillin MIC + Peptide ([2]; P. aeruginosa 23): 64 µg/mL; Peptide MIC Alone ([2]; P. aeruginosa 23 (6. Piperacillin)): 64 µg/mL; Peptide MIC + Tobramycin ([2]; P. aeruginosa PA032): 32 µg/mL; Tobramycin MIC + Peptide ([2]; P. aeruginosa PA032): 4 µg/mL; Peptide MIC Alone ([2]; P. aeruginosa PA032 (7. Tobramycin)): 64 µg/mL; Ciprofloxacin MIC + Peptide ([2]; P. aeruginosa PA77): 0.5 µg/mL; Peptide MIC + Ciprofloxacin ([2]; P. aeruginosa PA77): 32 µg/mL; Peptide MIC Alone ([2]; P. aeruginosa PA77 (3. Ciprofloxacin)): 128 µg/mL; Peptide MIC ([2]; S. aureus MRSA 9, pair Mupirocin / MBI 11D18CN): 2 µg/mL; Peptide MIC + Tobramycin ([2]; S. epidermidis SE080): 1 µg/mL; Tobramycin MIC + Peptide ([2]; S. epidermidis SE080): 4 µg/mL; Peptide MIC Alone ([2]; S. epidermidis SE080 (7. Tobramycin)): 2 µg/mL; Peptide MIC + Piperacillin ([2]; S. maltophilia 2): 8 µg/mL; Piperacillin MIC + Peptide ([2]; S. maltophilia 2): 16 µg/mL; Peptide MIC Alone ([2]; S. maltophilia 2 (6. Piperacillin)): 32 µg/mL; Peptide MIC + Piperacillin ([2]; S. maltophilia 14): 8 µg/mL; Piperacillin MIC + Peptide ([2]; S. maltophilia 14): 16 µg/mL; Peptide MIC Alone ([2]; S. maltophilia 14 (6. Piperacillin)): 16 µg/mL; Peptide MIC + Tobramycin ([2]; S. maltophilia SMA027): 16 µg/mL; Tobramycin MIC + Peptide ([2]; S. maltophilia SMA027): 4 µg/mL; Peptide MIC Alone ([2]; S. maltophilia SMA027 (7. Tobramycin)): >128 µg/mL; Peptide MIC + Tobramycin ([2]; S. maltophilia SMA029): 8 µg/mL; Tobramycin MIC + Peptide ([2]; S. maltophilia SMA029): 2 µg/mL; Peptide MIC Alone ([2]; S. maltophilia SMA029 (7. Tobramycin)): 32 µg/mL; Peptide MIC + Piperacillin ([2]; S. marcescens 1): 4 µg/mL; Piperacillin MIC + Peptide ([2]; S. marcescens 1): 8 µg/mL; Peptide MIC Alone ([2]; S. marcescens 1 (6. Piperacillin)): >128 µg/mL; FIC ([2]; peptide + Ciprofloxacin, P. aeruginosa PA77): 0.50; FIC ([2]; peptide + Piperacillin, A. calcoaceticus 3): 0.38; FIC ([2]; peptide + Piperacillin, E. cloacae 9): 0.31; FIC ([2]; peptide + Piperacillin, E. cloacae 10): 0.56; FIC ([2]; peptide + Piperacillin, P. aeruginosa 23): 0.56; FIC ([2]; peptide + Piperacillin, S. maltophilia 2): 0.50; FIC ([2]; peptide + Piperacillin, S. maltophilia 14): 0.63; FIC ([2]; peptide + Piperacillin, S. marcescens 1): 0.14; FIC ([2]; peptide + Tobramycin, A. baumannii ABI001): 0.31; FIC ([2]; peptide + Tobramycin, A. baumannii ABI002): 9.53; FIC ([2]; peptide + Tobramycin, P. aeruginosa PA032): 11.00; FIC ([2]; peptide + Tobramycin, S. epidermidis SE080): 0.75; FIC ([2]; peptide + Tobramycin, S. maltophilia SMA027): 9.19; FIC ([2]; peptide + Tobramycin, S. maltophilia SMA029): 0.27; FIC ([2]; peptide + Vancomycin, E. faecalis EFS003): 0.75; FIC ([2]; peptide + Vancomycin, E. faecalis EFS007): 0.63; FIC ([2]; peptide + Vancomycin, E. faecalis EFS009): 0.75; FIC ([2]; peptide + Vancomycin, E. faecium EFM004): 0.50; FIC ([2]; peptide + Vancomycin, E. faecium EFM007): 0.50; FIC ([2]; peptide + Vancomycin, E. faecium EFM009): 0.52; FIC ([2]; peptide + Vancomycin, E. faecium EFM010): 0.59
